Values joined by “and” are separate entries in the source; they are usually repeats but may differ in a detail not shown here. Identical values can stand only once. Like-named read-outs stand apart in the source and are kept apart here.
Assays:
[1] = ref WO2022/081626; cited from earlier work
GIST-48B = experiment: CellTiter-Glo (CTG) GR50, GIST-48B control cell line (off-target toxicity); settings: ratio of GR50 values; for GIST-48B/D842V: source data sheet
GIST-T1 = experiment: CellTiter-Glo (CTG) GR50, GIST-T1; settings: for GI50: Homo sapiens
T1-V654A = experiment: CellTiter-Glo (CTG) GR50, T1-V654A; settings: Homo sapiens
ZR-75-1 = experiment: CellTiter-Glo (CTG) EC50, ZR-75-1 breast cancer control cell line; assay type: cell-based, human; settings: Homo sapiens
Protocol: (§1) Cell line authenticity was confirmed by STR analysis at Eurofins Genomics. All cell lines were tested regularly for mycoplasma contamination using the Mycoplasmacheck Service at Eurofins Genomics. […] Following incubation for 24 h in a humidified atmosphere at 37 °C and 5% CO2, cells were treated with inhibitors in serial dilutions ranging from 30 µM down to 0.1 nM using an Echo650 acoustic liquid handler (Beckman Coulter). Cell viability was analyzed on day 5 using the CellTiter-Glo® assay (Promega) using 500 ms integration time. The obtained data were normalized to the plate positive control (30 µM staurosporine) and negative control (DMSO) and subsequently analyzed and fitted with the Quattro Software Suite (Quattro Research) using a four-parameter logistic model. As quality control, the Z’-factor was calculated from 16 positive and negative control values. Only assay results showing a Z’-factor ≥0.5 were used for further analysis. All experimental points were measured in duplicates for each plate and were independently replicated in at least three plates.

T1-a-5258 = experiment: CellTiter-Glo (CTG) GR50, T1-a-5258; settings: Homo sapiens
KIT-D816H = KIT-D816H (Homo sapiens, UniProt P10721, D816H); experiment: Activity-based HTRF KinEASE assay, KIT-D816H; assay type: biochemical
PDGFRA-D842V = molecular target: T1, PDGFRA-D842V (Homo sapiens, UniProt P16234, D842V); experiment: Activity-based HTRF KinEASE assay, PDGFRA-D842V; assay type: biochemical
T1 construct: purchased Invitrogen PV4203 (lot #2343231B)

SK-LMS-1 = experiment: CellTiter-Glo (CTG) GR50, SK-LMS-1 control cell line; settings: for CTG GR50 SK-LMS-1, single determinations: raw data of Supp. Tab. 2, independent experiments, unit from Supp. Tab. 2
MDA-MB-175VII = experiment: CellTiter-Glo (CTG) EC50, MDA-MB-175VII breast cancer control cell line; assay type: cell-based, human; settings: Homo sapiens, MDA-MB-175-VII
Protocol: as §1

T1-T670I = experiment: CellTiter-Glo (CTG) GR50, T1-T670I; settings: Homo sapiens
T1-a-D842V = experiment: CellTiter-Glo (CTG) GR50, T1-a-D842V; settings: comparator not clearly stated
MDR1 = experiment: MDCKII-MDR1 permeability assay; settings: dog; for recovery at 2 h, 10 µM: MDCKII-MDR1, assay conc. 10
[2] = MDCKII-MDR1 permeability assay; settings: dog
[3] = GISTT1, read-out: CTG GR50 GIST-T1, single determinations, raw data of Table 1, independent experiments, unit from Table 1
[4] = GISTT1, read-out: KIT CTG GR50 GIST-T1, mean ± s.d., n ≥ 3, GR50 half-maximal growth inhibition rate
[5] = read-out: KIT CTG GR50 T1-V654A, mean ± s.d., n ≥ 3 (* n = 2 for ava)
[6] = ZR-75-1, mean ± s.d., n = 3, control cell line, read-out: CTG EC50 ZR-75-1
[7] = ZR-75-1, raw data of Supp. Tab. 2, independent experiments, unit from Supp. Tab. 2, read-out: CTG EC50 ZR-75-1, single determinations
[8] = read-out: CTG GR50 T1-a-5258, single determinations, raw data of Supp. Tab. 1, independent experiments, unit from Supp. Tab. 1
[9] = read-out: PDGFRA CTG GR50 T1-a-5258, mean ± s.d., n ≥ 3, triple mutant D842V, G652E, V658A
[10] = mean ± s.d., n ≥ 3, ATP at KM (12 µM), read-out: HTRF IC50 KIT-D816H
[11] = raw data of Table 1, independent experiments, unit from Table 1, read-out: HTRF IC50 KIT-D816H, single determinations
[12] = mean ± s.d., n ≥ 3, ATP at KM (14 µM), read-out: HTRF IC50 PDGFRA-D842V
[13] = raw data of Table 1, independent experiments 1-3, unit from Table 1, read-out: HTRF IC50 PDGFRA-D842V, single determinations
[14] = read-out: CTG EC50 MDA-MB-175VII, mean ± s.d., n = 3, control cell line
[15] = read-out: CTG EC50 MDA-MB-175VII, single determinations, raw data of Supp. Tab. 2, independent experiments, unit from Supp. Tab. 2
[16] = read-out: CTG GR50 T1-T670I, single determinations, raw data of Supp. Tab. 1, independent experiments, unit from Supp. Tab. 1
[17] = read-out: KIT CTG GR50 T1-T670I, mean ± s.d., n ≥ 3

T1 sequence (P16234 24-1089 D842V): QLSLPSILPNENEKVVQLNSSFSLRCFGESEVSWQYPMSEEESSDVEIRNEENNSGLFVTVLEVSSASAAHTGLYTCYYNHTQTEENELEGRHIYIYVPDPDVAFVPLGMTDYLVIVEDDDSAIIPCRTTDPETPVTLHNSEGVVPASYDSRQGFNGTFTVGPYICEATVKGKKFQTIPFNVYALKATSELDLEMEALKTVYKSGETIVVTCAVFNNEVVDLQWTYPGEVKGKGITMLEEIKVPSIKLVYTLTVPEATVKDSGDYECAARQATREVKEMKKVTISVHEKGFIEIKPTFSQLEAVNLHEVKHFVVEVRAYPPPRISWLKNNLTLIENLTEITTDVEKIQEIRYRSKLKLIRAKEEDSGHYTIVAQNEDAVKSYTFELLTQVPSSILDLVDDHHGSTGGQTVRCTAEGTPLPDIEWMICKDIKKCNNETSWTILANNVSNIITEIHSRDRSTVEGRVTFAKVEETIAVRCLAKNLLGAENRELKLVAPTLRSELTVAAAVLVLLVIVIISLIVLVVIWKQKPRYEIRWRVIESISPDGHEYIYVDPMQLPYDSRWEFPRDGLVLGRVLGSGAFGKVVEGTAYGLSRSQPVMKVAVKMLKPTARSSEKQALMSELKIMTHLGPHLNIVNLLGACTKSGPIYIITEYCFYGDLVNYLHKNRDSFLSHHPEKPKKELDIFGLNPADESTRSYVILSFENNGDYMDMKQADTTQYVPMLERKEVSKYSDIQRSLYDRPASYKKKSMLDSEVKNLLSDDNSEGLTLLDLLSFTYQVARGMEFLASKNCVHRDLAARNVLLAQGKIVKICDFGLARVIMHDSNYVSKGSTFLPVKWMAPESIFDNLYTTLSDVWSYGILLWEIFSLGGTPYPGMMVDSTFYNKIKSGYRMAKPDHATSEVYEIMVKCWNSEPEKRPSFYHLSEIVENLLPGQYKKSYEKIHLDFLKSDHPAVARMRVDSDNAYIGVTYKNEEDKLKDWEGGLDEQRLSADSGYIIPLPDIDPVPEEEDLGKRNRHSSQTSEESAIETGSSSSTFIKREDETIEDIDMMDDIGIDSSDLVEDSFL
Sequence of KIT-D816H (P10721 26-976 D816H): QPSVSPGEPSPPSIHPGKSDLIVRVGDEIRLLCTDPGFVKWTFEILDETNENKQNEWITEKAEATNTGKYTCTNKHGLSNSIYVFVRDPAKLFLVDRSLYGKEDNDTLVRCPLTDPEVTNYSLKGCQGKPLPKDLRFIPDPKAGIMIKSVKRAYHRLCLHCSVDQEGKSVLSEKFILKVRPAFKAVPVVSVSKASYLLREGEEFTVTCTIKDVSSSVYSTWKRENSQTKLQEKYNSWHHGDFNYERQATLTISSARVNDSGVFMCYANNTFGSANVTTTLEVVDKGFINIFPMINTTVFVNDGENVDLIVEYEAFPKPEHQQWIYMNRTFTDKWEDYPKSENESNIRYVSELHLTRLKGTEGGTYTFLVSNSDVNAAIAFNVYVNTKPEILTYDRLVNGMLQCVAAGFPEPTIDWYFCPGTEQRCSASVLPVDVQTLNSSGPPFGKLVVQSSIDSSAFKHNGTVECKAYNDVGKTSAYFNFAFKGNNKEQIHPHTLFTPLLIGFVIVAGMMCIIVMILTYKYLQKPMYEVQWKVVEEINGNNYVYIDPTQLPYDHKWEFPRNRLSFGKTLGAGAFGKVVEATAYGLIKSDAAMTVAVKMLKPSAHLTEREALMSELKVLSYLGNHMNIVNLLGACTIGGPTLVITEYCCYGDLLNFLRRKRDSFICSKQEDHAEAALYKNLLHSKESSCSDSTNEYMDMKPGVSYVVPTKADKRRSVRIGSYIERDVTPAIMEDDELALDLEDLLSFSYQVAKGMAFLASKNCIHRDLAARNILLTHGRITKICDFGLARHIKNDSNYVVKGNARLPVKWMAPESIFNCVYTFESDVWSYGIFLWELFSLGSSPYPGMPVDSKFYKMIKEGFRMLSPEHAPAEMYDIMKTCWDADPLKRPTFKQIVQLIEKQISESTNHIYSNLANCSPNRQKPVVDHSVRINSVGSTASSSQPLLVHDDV

EC50 (ZR-75-1; [6]) [nM] | EC50 (ZR-75-1; [7]) [nM] | IC50 (KIT-D816H; [10]) [nM] | IC50 (KIT-D816H; [11]) | IC50 (PDGFRA-D842V; [12]) [nM] | IC50 (PDGFRA-D842V; [13]) | EC50 (MDA-MB-175VII; [14]) [nM] | EC50 (MDA-MB-175VII; [15]) [nM] | Structure (SMILES) | ratio GIST-48B/ T1-a-D842V (GIST-48B) | GIST-48B/D842V (GIST-48B) | GI50 (GIST-T1; [3]) [nM] | GI50 (GIST-T1; [4]) [nM] | GI50 (T1-V654A; [5]) [nM] | GI50 (T1-a-5258; [8]) [nM] | GI50 (T1-a-5258; [9]) [nM] | CTG GR50 SK-LMS-1, single determinations (SK-LMS-1) | GI50 (T1-T670I; [16]) [nM] | GI50 (T1-T670I; [17]) [nM] | other results
 |  |  |  |  |  |  |  | C[C@](N)(c1ccc(F)cc1)c1cnc(N2CCN(c3ncnn4cc(-c5cnn(CCO)c5)cc34)CC2)nc1 [BLU-263] |  |  |  |  |  |  |  |  |  |  | BBB permeability compared to avapritinib [1]: less BBB permeable compared to avapritinib
≥ 10000 | ≥ 10000 | 204 ± 84 | 283 nM and 116 nM and 213 nM | 749 ± 142 | 563 nM and 909 nM and 773 nM | ≥ 10000 | ≥ 10000 | Cn1cc(-c2cc3c(N4CCC5(CC4)CN(c4ncc(Cc6ccccc6)cn4)C5)ncnn3c2)cn1 [Compound 7] | 1 | 1.22 | 824 | 709 ± 196 | 6730 ± 439 | 9970 | 9520 ± 810 | ≥10 µM | ≥ 10000 | ≥ 10000 | fold decrease in potency, GIST-T1 (GIST-T1; comparator not clearly stated): ~ 17 fold; GI50 (T1-V654A; read-out: CTG GR50 T1-V654A, single determinations, raw data of Supp. Tab. 1, independent experiments, unit from Supp. Tab. 1): 6130 nM; fold decrease in potency, T1-a-D842V (T1-a-D842V): > 500 fold
≥ 10000 | ≥ 10000 | 0.6 ± 0.4 | 1.1 nM and 0.3 nM and 0.53 nM | 0.2 ± 0.1 | 0.3 nM and 0.2 nM and 0.1 nM | ≥ 10000 | ≥ 10000 | COC(=O)N[C@@](C)(c1ccc(F)cc1)c1cnc(N2CCN(c3ncnn4cc(-c5cnn(C)c5)cc34)CC2)nc1 [Compound 12] | 256 | 256 | 71 | 60 ± 12 | 474 ± 155 | 2400 | 2220 ± 350 | 6.084 µM and 5.919 µM and 10 µM | 620 | 695 ± 135 | efflux ratio at 2 h, 10 µM (MDR1; MDCK-MDR1): 0.22; recovery at 2 h, 10 µM (MDR1; MDCK-MDR1, Recovery A->B): 25.4%; recovery at 2 h, 10 µM (MDR1; MDCK-MDR1, Recovery B->A): 49.7%; Papp B→A at 2 h, 10 µM ([2]; MDCK-MDR1): 2.76 ×10⁻⁶ cm/s; Papp A→B at 2 h, 10 µM ([2]; MDCK-MDR1, MDCKII-MDR1 (Papp A→B), at 10 µM, 2 h, 37 °C, unit inferred): 12.4 ×10⁻⁶ cm/s; Papp A→B at 2 h, 10 µM ([2]; MDCK-MDR1, Papp A->B, MDCKII-MDR1, assay conc. 10, apical to basolateral): 12.4 ×10⁻⁶ cm/s; CTG GR50 SK-LMS-1 (SK-LMS-1; mean ± s.d., n = 3, control cell line): 7.334 ± 2.31 µM and 7.334 µM

Reference: article PMC10761696, “Avapritinib-based SAR studies unveil a binding pocket in KIT and PDGFRA” (Nature Communications, 2024)
